Assay results as given in patent US20100267561A1, “HERBICIDAL PYRIDAZINONE DERIVATIVES” (priority 2007, published 2010).

Tests used:
Type in all cases: in vivo
[1] = test system: barnyardgrass (Echinochloa crus-galli); assay: Test A pre-/postemergence plant response
Method in brief: (§1)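 Seeds in loam soil/sand blend treated preemergence by directed soil spray, with simultaneous postemergence spray on 2–10 cm plants at one- to two-leaf stage; compounds in non-phytotoxic solvent with surfactant. Injury visually rated versus untreated controls after about 10 days in greenhouse, 0 (no effect) to 100 (complete control).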

[2] = test system: wheat (Triticum aestivum); assay: Test A pre-/postemergence plant response
Method in brief: as §1

[3] = test system: large crabgrass (Digitaria sanguinalis); assay: Test A pre-/postemergence plant response
Method in brief: as §1

[4] = test system: morningglory (Ipomoea coccinea); assay: Test A pre-/postemergence plant response
Method in brief: as §1

[5] = test system: giant foxtail (Setaria faberi); assay: Test A pre-/postemergence plant response
Method in brief: as §1

[6] = test system: pigweed (Amaranthus retroflexus); assay: Test A pre-/postemergence plant response
Method in brief: as §1

[7] = test system: velvetleaf (Abutilon theophrasti); assay: Test A pre-/postemergence plant response
Method in brief: as §1

[8] = test system: corn (Zea mays); assay: Test A pre-/postemergence plant response
Method in brief: as §1

[9] = test system: green foxtail (Setaria viridis); assay: Test B pre-/postemergence plant response
Method in brief: (§2)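 Preemergence and postemergence (plants 2-18 cm, 1- to 4-leaf stage) applications used test chemicals in a non-phytotoxic solvent with surfactant. Plants were held in a greenhouse 13 to 15 days, then rated visually against controls on a 0-100 scale (0 no effect, 100 complete control).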

[10] = test system: eastern black (E.B.) nightshade (Solanum ptycanthum); assay: Test B pre-/postemergence plant response; conditions: Preemergence
Method in brief: as §2

[11] = test system: barnyardgrass (Echinochloa crus-galli); assay: Test B flooded paddy test plant response
Method in brief: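 Paddy-water application to 2-leaf plants in pots held under 3 cm of flooding; response is a 0–100 visual control rating against controls after 13 to 15 days, and a dash marks a missing result.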

[12] = Postemergence, 31 g ai/ha, 0 to 100 scale (0 no effect, 100 complete control)
[13] = Postemergence, 125 g ai/ha, 0 to 100 scale, 0 no effect, 100 complete control
[14] = Preemergence, 31 g ai/ha, 0 to 100 scale, 0 is no effect, 100 is complete control
[15] = Preemergence, 125 g ai/ha, 0 to 100 scale (0 no effect, 100 complete control)
[16] = Preemergence, 8 g ai/ha, scale 0 to 100
[17] = Preemergence, 16 g ai/ha, scale 0 to 100
[18] = 31 g ai/ha, scale 0 to 100 (0 no effect, 100 complete control)
[19] = Flood (flooded paddy test), 62 g ai/ha, scale 0 to 100, 0 no effect, 100 complete control
[20] = Flood (flooded paddy test), 125 g ai/ha, scale 0 to 100, 0 no effect, 100 complete control
[21] = Flood (flooded paddy test), 250 g ai/ha, scale 0 to 100, 0 no effect, 100 complete control
[22] = Flood, 31 g ai/ha, scale 0 to 100

For Cc1cc(-c2ccc(Cl)cc2)nn1-c1c(OS(=O)(=O)c2ccccc2[N+](=O)[O-])cnn(C)c1=O [Compound 51], the “Plant response rating, Barnyardgrass” value [1, 12] was 20, the “Plant response rating, Barnyardgrass” value [1, 13] was 80 and the “Plant response rating, Barnyardgrass” value [1, 14] was 80. The “Plant response rating, Barnyardgrass” value [1, 15] was 100, the “Plant response rating, Wheat” value [2, 12] was 0 and the “Plant response rating, Wheat” value [2, 13] was 40. For the same compound, the “Plant response rating, Wheat” value [2, 14] was 40, the “Plant response rating, Wheat” value [2, 15] was 80 and the “Plant response rating, Crabgrass, Large” value [3, 12] was 20. For the same compound, the “Plant response rating, Crabgrass, Large” value [3, 13] was 70, the “Plant response rating, Crabgrass, Large” value [3, 14] was 90 and the “Plant response rating, Crabgrass, Large” value [3, 15] was 100. The “Plant response rating, Morningglory” value [4, 12] was 0, the “Plant response rating, Morningglory” value [4, 13] was 0 and the “Plant response rating, Morningglory” value [4, 14] was 0. For the same compound, the “Plant response rating, Morningglory” value [4, 15] was 0, the “Plant response rating, Foxtail, Giant” value [5, 12] was 20 and the “Plant response rating, Foxtail, Giant” value [5, 13] was 70. For the same compound, the “Plant response rating, Foxtail, Giant” value [5, 14] was 90, the “Plant response rating, Foxtail, Giant” value [5, 15] was 100 and the “Plant response rating, Pigweed” value [6, 12] was 0. The “Plant response rating, Pigweed” value [6, 13] was 0, the “Plant response rating, Pigweed” value [6, 15] was 0 and the “Plant response rating, Velvetleaf” value [7, 12] was 0. The “Plant response rating, Velvetleaf” value [7, 13] was 0, the “Plant response rating, Velvetleaf” value [7, 14] was 0 and the “Plant response rating, Velvetleaf” value [7, 15] was 0. For the same compound, the “Plant response rating, Corn” value [8, 12] was 20, the “Plant response rating, Corn” value [8, 13] was 60 and the “Plant response rating, Corn” value [8, 14] was 20. The “Plant response rating, Corn” value [8, 15] was 80, the “Plant response rating, Foxtail, Green” value ([9]; Preemergence, 31 g ai/ha, 0 to 100 scale, 0 no effect, 100 complete control) was 98 and the “Plant response rating, Foxtail, Green” value ([9]; Preemergence, 62 g ai/ha, scale 0 to 100) was 100. The “Foxtail, Green plant response rating” value [9, 16] was 50, the “Foxtail, Green plant response rating” value [9, 17] was 90 and the “Plant response rating, Nightshade, E. B.” value [10, 18] was 0. For the same compound, the “Plant response rating, Nightshade, E. B.” value ([10]; 62 g ai/ha, scale 0 to 100) was 0, the “Plant response rating, Barnyardgrass” value [11, 19] was 0 and the “Plant response rating, Barnyardgrass” value [11, 20] was 10. For the same compound, the “Plant response rating, Barnyardgrass” value [11, 21] was 30 and the “Plant response rating, Barnyardgrass” value [11, 22] was 0.
Cc1cc(-c2ccc(Cl)cc2)nn1-c1c(OC(=O)OCC(C)C)cnn(C)c1=O [Compound 57] was tested, and the “Plant response rating, Barnyardgrass” value [1, 12] was 0, the “Plant response rating, Barnyardgrass” value [1, 13] was 80 and the “Plant response rating, Barnyardgrass” value [1, 14] was 60. For the same compound, the “Plant response rating, Barnyardgrass” value [1, 15] was 100, the “Plant response rating, Wheat” value [2, 12] was 0 and the “Plant response rating, Wheat” value [2, 13] was 50. For the same compound, the “Plant response rating, Wheat” value [2, 14] was 0, the “Plant response rating, Wheat” value [2, 15] was 70 and the “Plant response rating, Crabgrass, Large” value [3, 12] was 0. The “Plant response rating, Crabgrass, Large” value [3, 13] was 80, the “Plant response rating, Crabgrass, Large” value [3, 14] was 50 and the “Plant response rating, Crabgrass, Large” value [3, 15] was 100. For the same compound, the “Plant response rating, Morningglory” value [4, 12] was 0, the “Plant response rating, Morningglory” value [4, 13] was 0 and the “Plant response rating, Morningglory” value [4, 14] was 0. The “Plant response rating, Morningglory” value [4, 15] was 0, the “Plant response rating, Foxtail, Giant” value [5, 12] was 0 and the “Plant response rating, Foxtail, Giant” value [5, 13] was 90. The “Plant response rating, Foxtail, Giant” value [5, 14] was 90, the “Plant response rating, Foxtail, Giant” value [5, 15] was 100 and the “Plant response rating, Pigweed” value [6, 12] was 0. The “Plant response rating, Pigweed” value [6, 13] was 0, the “Plant response rating, Pigweed” value [6, 14] was 0 and the “Plant response rating, Pigweed” value [6, 15] was 0. For the same compound, the “Plant response rating, Velvetleaf” value [7, 12] was 0, the “Plant response rating, Velvetleaf” value [7, 13] was 0 and the “Plant response rating, Velvetleaf” value [7, 14] was 0. For the same compound, the “Plant response rating, Velvetleaf” value [7, 15] was 0, the “Plant response rating, Corn” value [8, 12] was 0 and the “Plant response rating, Corn” value [8, 13] was 60. For the same compound, the “Plant response rating, Corn” value [8, 14] was 0, the “Plant response rating, Corn” value [8, 15] was 50 and the “Foxtail, Green plant response rating” value ([9]; 8 g ai/ha, postemergence, 0-100 scale) was 80. For the same compound, the “Plant response rating, Foxtail, Green” value ([9]; Postemergence, 16 g ai/ha, scale 0 to 100) was 95, the “Plant response rating, Foxtail, Green” value ([9]; Postemergence, 31 g ai/ha, scale 0 to 100) was 100 and the “Plant response rating, Foxtail, Green” value ([9]; Postemergence, 62 g ai/ha, scale 0 to 100, 0 no effect, 100 complete control) was 100. For the same compound, the “Plant response rating, Foxtail, Green” value ([9]; Preemergence, 31 g ai/ha, scale 0 to 100 (0 no effect, 100 complete control)) was 100, the “Plant response rating, Foxtail, Green” value ([9]; Preemergence, 62 g ai/ha, 0 to 100 scale, 0 no effect, 100 complete control) was 100 and the “Foxtail, Green plant response rating” value [9, 16] was 70. The “Foxtail, Green plant response rating” value [9, 17] was 100, the “Plant response rating, Nightshade, E. B.” value [10, 18] was 0 and the “Plant response rating, Nightshade, E. B.” value ([10]; 62 g ai/ha, 0 to 100 scale, 0 no effect, 100 complete control) was 0. For the same compound, the “Nightshade, E. B. plant response rating” value ([10]; 8 g ai/ha, scale 0 to 100) was 0, the “Nightshade, E. B. plant response rating” value ([10]; 16 g ai/ha, scale 0 to 100) was 0 and the “Plant response rating, Barnyardgrass” value [11, 19] was 0. The “Plant response rating, Barnyardgrass” value [11, 20] was 0, the “Plant response rating, Barnyardgrass” value [11, 21] was 0 and the “Plant response rating, Barnyardgrass” value [11, 22] was 0.
